The text below walks through data of patent publication US6656911B2, “Serine protease inhibitors” (Cortech, Inc., priority 1994, dated 2003).

The term Ki denotes a measure of affinity in units of concentration, obtained from inhibition or displacement. By inhibition is commonly meant the relative decrease from the control value, in per cent. A low value points to a response near the control.

Data set [1] concerns the target T1, human neutrophil elastase (HNE) (Homo sapiens, UniProt P08246).
T1 sequence (P08246 30-267): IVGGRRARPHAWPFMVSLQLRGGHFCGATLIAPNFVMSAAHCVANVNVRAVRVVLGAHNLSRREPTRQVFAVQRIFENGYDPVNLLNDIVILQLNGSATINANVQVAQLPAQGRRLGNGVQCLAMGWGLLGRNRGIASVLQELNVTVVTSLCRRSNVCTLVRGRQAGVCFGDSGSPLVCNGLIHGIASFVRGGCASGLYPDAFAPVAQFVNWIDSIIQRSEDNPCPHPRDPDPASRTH
Nature of the data set: HNE Ki of CE compounds, tested as described in WO 96/16080. The following applies: read-out: HNE Ki. The class given is biochemical.

Data set [2] is described as follows: Blood level screening after oral dose. The class given is in vivo, Sprague-Dawley rats. The following applies: rat, oral gavage 10 mg/kg; for concentration at 3 h / concentration at 1 h / concentration at 6 h: male, Sprague-Dawley, plasma; for concentration at 3 h: read-out: Plasma Levels (μM) 3 hr; for concentration at 1 h: read-out: Plasma Levels (μM) 1 hr; for concentration at 6 h: read-out: Plasma Levels (μM) 6 hr. The method in brief: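 Unfasted male Sprague-Dawley rats received 10 mg/kg by oral gavage in PEG, PEG-400 or PEG:H2O:EtOH. Plasma was solvent-extracted and the inhibitor measured by HPLC or LC/MS.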

In data set [3] the test system is polymorphoneucleocyte (PMN). In words: Extracellular Matrix (ECM) degradation assay. Type of data set: cell-based. Particulars: PMN's stimulated with opsonized zymosan, 4 hr at 37° C.; for inhibition at 5 µM / ECM DATA % Inhibition 5 uM: 5 uM inhibitor; for inhibition at 1 µM / ECM DATA % Inhibition 1 uM: 1 uM inhibitor. The procedure:
Forty-eight well plates on which extracellular matrix had been established were supplied to Cortech by Dr. Simon's group at the State University of New York at Stony Brook. Briefly, the plates were prepared as follows: R22 rat heart smooth muscle cells were seeded into wells at 2.5×10^4 cells/cm. The cells were fed every 4 days with Eagle's Minimal Essential Media supplemented with fetal bovine serum, tryptose phosphate broth, cefotaxime and streptomycin. At confluence, daily supplements of 50 ug/ml ascorbic acid were added for 8 to 10 days during the synthesis of the ECM layer. [^35S]sulfate and [^3H]proline were also added to the culture media to incorporate radiolabel into the matrix. Cells were later lysed with 25 mM NH4OH. Plates were washed three times with water and once with phosphate-buffered saline containing 0.02% NaN3. Plates were stored at 4° C. until use.
Matrix degradation assays were performed as follows: 0.40 ml of Hanks balance salt solution (HBSS) containing 1 or 5 uM test inhibitor (final concentration; diluted from DMSO stock solution; <2% DMSO final concentration) was added to the wells. After 30 minutes, 50 ul of a polymorphoneucleocyte (PMN) suspension was added resulting in 5×10^5 cells/well. PMN's were stimulated with opsonized zymosan. Zymosan particles were washed and suspended in 0.5 ml human serum for 1 hr at 37° C., vortexing every 15 min. The particles were then washed three times with HBSS and added to wells at a ratio of 10 particles/PMN in a volume of 50 ul. After a 4 hr incubation at 37° C., a 100 ul aliquot of the supernatant was withdrawn for scintillation counting. Following removal of the remaining supernatant, the residual ECM was solubilized with 0.5 ml 2M NaOH. The amount of tritium in this solubilized ECM was accessed by scintillation. ECM degradation data are expressed as (soluble counts released/total ECM counts)—(basal counts released without PMN's/total ECM counts).

With `CC(C)[C@H](NC(=O)[C@@H]1CCCN1C(=O)[C@@H](NC(=O)OCc1ccccc1)C(C)C)C(=O)c1noc(Cc2ccc3c(c2)OCO3)n1` [CE2178, (Benzyloxycarbonyl)-L-valyl-N-[1-(3-[5-(3,4-methylenedioxybenzyl)-1,2,4-oxadiazolyl]carbonyl)-2-(S)-methylpropyl]-L-prolinamide], in data set [1], the Ki stood at 0.29 nM. Moreover, in data set [2], the concentration at 3 h came out at 0.185 µM. The molecule also showed an inhibition at 5 µM in data set [3] of 34%.
With `CC(C)[C@H](NC(=O)[C@@H]1CCCN1C(=O)[C@@H](NC(=O)OCc1ccccc1)C(C)C)C(=O)c1nnc(Cc2ccc(N(C)C)cc2)o1` [CE2100, (Benzyloxycarbonyl)-L-valyl-N-[1-(2-[5-(4-Dimethylaminobenzyl)-1,3,4-oxadiazolyl]carbonyl)-2-(S)-methylpropyl]-L-prolinamide], the Ki in data set [1] stood at 0.069 nM. In data set [2], the concentration at 3 h stood at 0.064 µM. In data set [3], this molecule gave an inhibition at 1 µM of 57.6% and an inhibition at 5 µM of 56.6%.
Regarding `Cc1cccc(Cc2nnc(C(=O)[C@@H](NC(=O)CN3C(=O)CNC3=O)C(C)C)o2)c1` [CE2238, 2,5-Imidazolidinedione-N-[1-(2-[5-(3-methylbenzyl)-1,3,4-oxadiazolyl]carbonyl)-2-(S)-methylpropyl]acetamide], in data set [1], the Ki was 162 nM. In addition, in data set [2], the concentration at 1 h was 2.57 µM, the concentration at 3 h amounted to 1.74 µM and the concentration at 6 h turned out to be 1.03 µM. In data set [3], this molecule had an inhibition at 1 µM of 10.1% and an inhibition at 5 µM of 18.8%.
Consider “2-[(4-Fluorophenyl)-1,6-dihydro-1-pyrimidinyl]-N-[1-(2-[5-(3-methylbenzyl)-1,3,4-oxadiazolyl]carbonyl)-2-(S)-methylpropyl]acetamide [CE2254]”, for which, in data set [1], the Ki turned out to be 2.4 nM. Moreover, in data set [2], the “Plasma Levels (μM) 1 hr” value amounted to 1.751 µM, the “Plasma Levels (μM) 3 hr” value was 1.575 µM and the “Plasma Levels (μM) 6 hr” value was 2.316 µM. Besides, in data set [3], the “ECM DATA % Inhibition 1 uM” value turned out to be 57.2% and the “ECM DATA % Inhibition 5 uM” value is listed as 58.4%.
With `Cc1cccc(Cc2nnc(C(=O)[C@@H](NC(=O)CN3C(=O)CN=C(C4CCNCC4)c4ccccc43)C(C)C)o2)c1` [CE2233, 2-Oxo-5-(4-piperidinyl)-1,4-benzodiazepine-N-[1-(2-[5-(3-methylbenzyl)-1,3,4-oxadiazolyl]carbonyl)-2-(S)-methylpropyl]acetamide], in data set [1], the Ki was determined as 41.6 nM. Also, in data set [2], the concentration at 1 h is 0.07 µM, the concentration at 3 h worked out at 0.065 µM and the concentration at 6 h came out at 0.036 µM. In data set [3], this molecule displayed an inhibition at 1 µM of 54.7% and an inhibition at 5 µM of 55.4%.
As for `Cc1cccc(Cc2nnc(C(=O)[C@@H](NC(=O)CN3C(=O)CN=C(c4ccccc4N(C)C)c4ccccc43)C(C)C)o2)c1` [CE2258, 2-Oxo-5-phenyl-1,4-(2′-dimethylaminobenzodiazepine)-N-[1-(2-[5-(3-methylbenzyl)-1,3,4-oxadiazolyl]carbonyl)-2-(S)-methylpropyl]acetamide], the Ki in data set [1] came to 3.7 nM. In data set [2], the “Plasma Levels (μM) 1 hr” value was found to be 1.624 µM, the “Plasma Levels (μM) 3 hr” value amounted to 1.5 µM and the “Plasma Levels (μM) 6 hr” value was found to be 1.212 µM. Moreover, in data set [3], the “ECM DATA % Inhibition 1 uM” value was 42.9% and the “ECM DATA % Inhibition 5 uM” value was 38.1%.
Turning to `Cc1cccc(Cc2nnc(C(=O)C(NC(=O)CN3C(=O)C(c4ccccc4)N(C)C3=O)C(C)C)o2)c1` [CE2179, 5-(R,S)-Phenyl-1-methyl-2,4-imidazolidinedione-N-[1-(2-[5-(3-methylbenzyl)-1,3,4-oxadiazolyl]carbonyl)-2-(S)-methylpropyl]acetamide], in data set [1], the Ki came out at 7.6 nM. Further, in data set [2], the concentration at 1 h turned out to be 1.23 µM and the concentration at 3 h came to 0.599 µM. Besides, in data set [3], testing at 1 µM gave an inhibition of 48.8% and the inhibition at 5 µM amounted to 45.9%.
Consider `Cc1cccc(Cc2nnc(C(=O)[C@@H](NC(=O)CN3C(=O)N[C@H](C(C)C)C3=O)C(C)C)o2)c1` [CE2174, 4-(R)-Isopropyl-2,5-imidazolidinedione-N-[1-(2-[5-(3-methylbenzyl)-1,3,4-oxadiazolyl]carbonyl)-2-(S)-methylpropyl]acetamide], for which the Ki in data set [1] stood at 15.2 nM. In addition, in data set [2], the “Plasma Levels (μM) 1 hr” value is 1.86 µM and the “Plasma Levels (μM) 3 hr” value came out at 0.97 µM. In addition, in data set [3], the “ECM DATA % Inhibition 1 uM” value is recorded as 1.49% and the “ECM DATA % Inhibition 5 uM” value was 18.3%.
For `Cc1cccc(Cc2nnc(C(=O)C(NC(=O)CN3C(=O)C(Cc4ccccc4)N(CCN4CCOCC4)C3=O)C(C)C)o2)c1` [CE2184, 1-(N-Morpholinoethyl)-5-(S)-benzyl-2,4-imidazolidinedione-N-[1-(2-[5-(3-methylbenzyl)-1,3,4-oxadiazolyl]carbonyl)-2-(R,S)-methylpropyl]acetamide], in data set [1], the Ki was 8.2 nM. In data set [2], the concentration at 3 h is 0.57 µM. In data set [3], this molecule showed an inhibition at 1 µM of 30.5% and an inhibition at 5 µM of 32.4%.
The like results for `Cc1cccc(Cc2nnc(C(=O)C(NC(=O)CN3C(=O)C(N)N=C(c4ccccc4)c4ccccc43)C(C)C)o2)c1` [CE2134, (R,S)-3-Amino-2-oxo-5-phenyl-1,4,-benzodiazepine-N-[1-(2-[5-(3-methylbenzyl)-1,3,4-oxadiazolyl]carbonyl)-2-(S)-methylpropyl]acetamide] were, in that order, 2 nM, 5.02 µM, 21.7% and 25.7%.
As for `Cc1cccc(Cc2nnc(C(=O)[C@@H](NC(=O)CN3C(=O)N[C@H](CC(C)C)C3=O)C(C)C)o2)c1` [CE2246, 4-(R)-(2-Isobutyl)-2,5-imidazolidinedione-N-[1-(2-[5-(3-methylbenzyl)-1,3,4-oxadiazolyl]carbonyl)-2-(S)-methylpropyl]acetamide], the Ki in data set [1] turned out to be 18.5 nM. Also, in data set [2], the “Plasma Levels (μM) 1 hr” value is 1.182 µM, the “Plasma Levels (μM) 3 hr” value was 0.837 µM and the “Plasma Levels (μM) 6 hr” value worked out at 0.496 µM. Moreover, in data set [3], the “ECM DATA % Inhibition 1 uM” value was −2.3% and the “ECM DATA % Inhibition 5 uM” value came to 32.6%.
Regarding `Cc1cccc(Cc2nnc(C(=O)[C@@H](NC(=O)CN3C(=O)N[C@H](CC(=O)N(C)C)C3=O)C(C)C)o2)c1` [CE2247, 4-(R)-(2-N,N-Dimethylcarboxamido)-2,5-imidazolidinedione-N-[1-(2-[5-(3-methylbenzyl)-1,3,4-oxadiazolyl]carbonyl)-2-(S)-methylpropyl]acetamide], the Ki in data set [1] came out at 62.4 nM. In data set [2], the “Plasma Levels (μM) 1 hr” value was 1.017 µM, the “Plasma Levels (μM) 3 hr” value turned out to be 0.572 µM and the “Plasma Levels (μM) 6 hr” value stood at 0.186 µM. Further, in data set [3], the “ECM DATA % Inhibition 1 uM” value is listed as 13.3% and the “ECM DATA % Inhibition 5 uM” value was determined as 21.2%.
As for `CC(C)[C@H](NC(=O)CN1C(=O)N[C@H](Cc2ccc(O)cc2)C1=O)C(=O)c1nnc(Cc2ccc3c(c2)OCO3)o1` [CE2256, 4-(R)-(4-Hydroxybenzyl)-2,5-imidazolidinedione-N-[1-(2-[5-(3,4-methylenedioxybenzyl)-1,3,4-oxadiazolyl]carbonyl)-2-(S)-methylpropyl]acetamide], in data set [1], the Ki is 16 nM. Besides, in data set [2], the “Plasma Levels (μM) 1 hr” value came to 0.9 µM, the “Plasma Levels (μM) 3 hr” value came to 0.33 µM and the “Plasma Levels (μM) 6 hr” value was found to be 0.2 µM. Moreover, in data set [3], the “ECM DATA % Inhibition 1 uM” value is on record as 24% and the “ECM DATA % Inhibition 5 uM” value is recorded as 47.8%.
On to `CC(C)[C@H](NC(=O)CN1C(=O)NC(c2ccccc2)(c2ccccc2)C1=O)C(=O)c1nnc(Cc2ccc3c(c2)OCO3)o1` [CE2259, 4,4-Diphenyl-2,5-imidazolidinedione-N-[1-(2-[5-(3,4-methylenedioxybenzyl)-1,3,4-oxadiazolyl]carbonyl)-2-(S)-methylpropyl]acetamide], for which, in data set [1], the Ki is 3.3 nM. In data set [2], the “Plasma Levels (μM) 1 hr” value came to 0.597 µM, the “Plasma Levels (μM) 3 hr” value turned out to be 0.846 µM and the “Plasma Levels (μM) 6 hr” value was 0.502 µM. Further, in data set [3], the “ECM DATA % Inhibition 1 uM” value is given as 43% and the “ECM DATA % Inhibition 5 uM” value stood at 59.6%.
